# Source: patent US20170190671A1, “BIS(ARYL)CATECHOL DERIVATIVES AS HERBICIDES” (E I DU PONT DE NEMOURS AND COMPANY, priority 2014, published 2017)
# Assays:
# [1] = tested on: large (Lg) crabgrass (Digitaria sanguinalis); test: Test C postemergence; assay type: in vivo; settings: Digitaria sanguinalis, post-emergence, 336 h, Postemergence, scale 0 to 100, read-out: Plant response rating, Crabgrass, Large
# Outline: (§1)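 Seeded loam-sand soil (preemergence) or young potted plants of 2-18 cm (postemergence) received test chemical formulated with surfactant in a non-phytotoxic solvent. Pots were kept in the greenhouse for 13-15 days before a visual 0-100 control rating relative to controls.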
# kochia (Kochia scoparia) = test: Test C postemergence; assay type: in vivo; settings: Bassia scoparia, post-emergence, Postemergence, scale 0 to 100, read-out: Plant response rating, Kochia
# Outline: as §1
# [2] = tested on: morningglory (Ipomoea coccinea); test: Test C postemergence; assay type: in vivo; settings: Ipomoea, post-emergence, 336 h, Postemergence, scale 0 to 100, read-out: Plant response rating, Morningglory
# Outline: as §1
# [3] = tested on: velvetleaf (Abutilon theophrasti); test: Test C postemergence; assay type: in vivo; settings: Abutilon theophrasti, post-emergence, Postemergence, scale 0 to 100, read-out: Plant response rating, Velvetleaf
# Outline: as §1
# [4] = tested on: winter wheat (Triticum aestivum); test: Test C postemergence; assay type: in vivo; settings: Triticum aestivum, post-emergence, 336 h, Postemergence, scale 0 to 100, read-out: Plant response rating, Wheat
# Outline: as §1
# [5] = tested on: galium (catchweed bedstraw, Galium aparine); test: Test C postemergence; assay type: in vivo; settings: Galium, post-emergence, 336 h, Postemergence, scale 0 to 100, read-out: Plant response rating, Galium
# Outline: as §1
compound,measurement,setting,value
"FC(F)c1cnc(Oc2c(Br)cccc2Oc2ncc(Cl)cn2)s1 [Compound 10, 2-[3-bromo-2-[[5-(difluoromethyl)-2-thiazolyl]oxy]phenoxy]-5-chloropyrimidine]",melting point,,113 to 116 °C
Fc1ccc(F)c(Oc2ncc(Br)cn2)c1Oc1ncc(Br)cn1 [Compound 31],melting point,,166 to 170 °C
N#Cc1cccc(Oc2ncc(Cl)cn2)c1Oc1ccc(Cl)cc1 [Compound 36],melting point,,172 to 175 °C
same,pest or weed control at 16 g/ha,[1]; 16 g ai/ha,5%
same,pest or weed control at 31 g/ha,[1]; 31 g ai/ha,10%
same,pest or weed control at 62 g/ha,[1]; 62 g ai/ha,10%
same,pest or weed control at 125 g/ha,[1]; 125 g ai/ha,20%
same,pest or weed control at 16 g/ha,kochia (Kochia scoparia); 16 g ai/ha,90%
same,pest or weed control at 31 g/ha,kochia (Kochia scoparia); 31 g ai/ha,95%
same,pest or weed control at 62 g/ha,kochia (Kochia scoparia); 62 g ai/ha,95%
same,pest or weed control at 125 g/ha,kochia (Kochia scoparia); 125 g ai/ha,100%
same,pest or weed control at 31 g/ha,[2]; 31 g ai/ha,60%
same,pest or weed control at 62 g/ha,[2]; 62 g ai/ha,65%
same,pest or weed control at 125 g/ha,[2]; 125 g ai/ha,70%
same,pest or weed control at 31 g/ha,[3]; 31 g ai/ha,45%
same,pest or weed control at 62 g/ha,[3]; 62 g ai/ha,70%
same,pest or weed control at 125 g/ha,[3]; 125 g ai/ha,80%
same,plant injury at 31 g/ha,[4]; 31 g ai/ha,0%
same,plant injury at 62 g/ha,[4]; 62 g ai/ha,0%
same,plant injury at 125 g/ha,[4]; 125 g ai/ha,5%
same,pest or weed control at 16 g/ha,[5]; 16 g ai/ha,80%
same,pest or weed control at 31 g/ha,[5]; 31 g ai/ha,80%
same,pest or weed control at 62 g/ha,[5]; 62 g ai/ha,95%
same,pest or weed control at 125 g/ha,[5]; 125 g ai/ha,95%
N#Cc1cccc(Oc2ncc(Cl)cn2)c1Oc1cccc(Cl)c1 [Compound 37],melting point,,122 to 126 °C
N#Cc1cccc(Oc2ncc(Cl)cn2)c1Oc1ccccc1Cl [Compound 40],melting point,,120 to 123 °C
